The text below walks through data of patent US20240360067A1, “DERIVATIVES OF ITACONIC ACID AND THEIR USE AS ANTI-INFLAMMATORY AGENTS” (Sitryx Therapeutics Limited, priority 2021, published 2024).

The structures appear in SMILES notation.

Data set [1] in a line: Hepatocyte stability assay, human. The format is in vitro ADME. The note with it: 10 μM compound, 0.5×10^6 cells/mL, 60 min; for CIint: Human hepatocytes; for half-life at 10 μM: cryo-preserved hepatocytes, read-out: T½. The text has this: (§1) Defrosted cryo-preserved hepatocytes (viability >70%) were used to determine the metabolic stability of a compound via calculation of intrinsic clearance (CIint; a measure of the removal of a compound from the liver in the absence of blood flow and cell binding). Clearance data are particularly important for in vitro work as they can be used in combination with in vivo data to predict the half-life and oral bioavailability of a drug.
(§2) The metabolic stability in hepatocytes assay involved a time-dependent reaction using both positive and negative controls. The cells must be pre-incubated at 37° C. then spiked with test compound (and positive control); samples taken at pre-determined time intervals were analysed to monitor the change in concentration of the initial drug compound over 60 minutes. A buffer incubation reaction (with no hepatocytes present) acted as a negative control and two cocktail solutions, containing compounds with known high and low clearance values (verapamil/7-hydroxycoumarin and propranolol/diltiazem), acted as positive controls. • 1. The assay was run with a cell concentration of 0.5×10^6 cells/mL in Leibovitz buffer. • 2. All compounds and controls were run in duplicate. • 3. Compound concentration was 10 μM. • 4. All compounds and controls were incubated with both cells and buffer to show turnover is due to hepatic metabolism. • 5. All wells on the incubation plate had 326.7 μL of either cells or buffer added. • 6. Prior to assay, cell and buffer-only incubation plates were preincubated for 10 mins at 37° C. • 7. The assay was initiated by adding compounds, 3.3 μL of 1 mM in 10% DMSO-90% Buffer; final DMSO concentration is 0.1%. • 8. Samples were taken at regular timepoints (0, 5, 10, 20, 40, 60 min) until 60 mins. • 9. Sample volume was 40 μL and added to 160 μL of crash solvent (acetonitrile with internal standard) and stored on ice. • 10. At the end of the assay, the crash plates were centrifuged at 3500 rpm for 20 mins at 4° C. • 11. 80 μL of clear supernatant was removed and mixed with 80 μL of deionised water before being analysed by LC-MS/MS.
(§3) Raw LC-MS/MS data were exported to, and analysed in, Microsoft Excel for determination of intrinsic clearance. The percentage remaining of a compound was monitored using the peak area of the initial concentration as 100%. Intrinsic clearance and half-life values were calculated using a graph of the natural log of percentage remaining versus the time of reaction in minutes.

The test system of data set [2] is IL-6. Put plainly: THP-1 AlphaLISA IL-6 cytokine assay (PMA-differentiated THP-1, LPS then nigericin). It counts as cell-based. The note with it: Homo sapiens; differentiated THP-1 cells; 30 min pre-incubation, LPS 24 hr, nigericin 1 hour. As to the method: (§4) Measuring Inhibitory Effects on IL-1β, and IL-6 Cytokine Output from THP-1s
(§5) The cytokine inhibition profiles of compounds of formula (I) were determined in a differentiated THP-1 cell assay. All assays were performed in RPMI-1640 growth medium (Gibco), supplemented with 10% fetal bovine serum (FBS; Gibco), 1% penicillin-streptomycin and 1% sodium pyruvate unless specified otherwise. The IL-1β and IL-6 cytokine inhibition assays were each run in a background of differentiated THP-1 cells as described below. All reagents described were from Sigma-Aldrich unless specified otherwise. Compounds were prepared as 10 mM DMSO stocks.
(§6) THP-1 cells were expanded as a suspension up to 80% confluence in appropriate growth medium. Cells were harvested, suspended, and treated with an appropriate concentration of phorbol 12-myristate 13-acetate (PMA) over a 72 hr period (37° C./5% CO2).
(§7) Following 72 hrs of THP-1 cell incubation, cellular medium was removed and replaced with fresh growth media containing 1% of FBS. Working concentrations of compounds were prepared separately in 10% FBS treated growth medium and pre-incubated with the cells for 30 minutes (37° C./5% CO2). Following the 30 minute compound pre-incubation, THP-1s were treated with an appropriate concentration of LPS and the THP-1s were subsequently incubated for a 24 hr period (37° C./5% CO2). An appropriate final concentration of Nigericin was then dispensed into the THP-1 plates and incubated for 1 hour (37° C./5% CO2) before THP-1 supernatants were harvested and collected in separate polypropylene 96-well holding plates.
(§8) Reagents from each of the IL-1β and IL-6 commercial kits (Perkin Elmer) were prepared and run according to the manufacturer's instructions. Subsequently, fluorescence signal detection in a microplate reader was measured (EnVision® Multilabel Reader, Perkin Elmer).
(§9) Percentage inhibition was calculated per cytokine by normalizing the sample data to the high and low controls used within each plate (+/−LPS respectively).
In general terms: Bead proximity is the source of the signal in Alpha formats.

The nature of data set [3]: Hepatocyte stability assay, mouse. The format is in vitro ADME. To be noted: 10 μM compound, 0.5×10^6 cells/mL, 60 min; for CIint: Mouse hepatocytes; for half-life at 10 μM: cryo-preserved hepatocytes, read-out: T½.
Description: as §1, §2, §3

The subject of data set [4] is IL-1β. The data set can be described thus: THP-1 AlphaLISA IL-1β cytokine assay (PMA-differentiated THP-1, LPS then nigericin). The note with it: 30 min pre-incubation, LPS 24 hr, nigericin 1 hour. It counts as cell-based. How it is done:
as §4, §5, §6, §7, §8, §9

For data set [5], the system named is NRF2. The data set can be described thus: NRF2 activation assay (DiscoverX PathHunter NRF2 translocation kit, U2OS cells). It counts as cell-based. The note with it: Homo sapiens; for Emax: U2OS, normalised to dimethyl fumarate high control; for EC50: U2OS PathHunter cells, 6 hours.
Where [6] appears, read: Homo sapiens, THP-1, differentiated THP-1 cells.

On to `C=C(CC(=O)O)C(=O)OC1(c2ccc(C(F)(F)F)cc2)CCC1` [Example 2, 3-((1-(4-(trifluoromethyl)phenyl)cyclobutoxy)carbonyl)but-3-enoic acid], for which the CIint is recorded as 9 μL min^−1 10^−6 cells in data set [1] and less than 3 μL min^−1 10^−6 cells in data set [3]. Moreover, the half-life at 10 μM is 126 min in data set [1] and greater than 460 min in data set [3]. Moreover, the IC50 was greater than 100 µM in data set [2] and 4.4 µM in data set [4] (setting [6]). The values for the Emax in data set [5] (+GSH) and in data set [5] (−GSH) were 14% and 26%, respectively. In addition, the EC50 in data set [5] (+GSH) and in data set [5] (−GSH) was greater than 100 µM in each case.
Consider `C=C(CC(=O)OC)C(=O)OC1(c2ccc(C(F)(F)F)cc2)CCC1` [Example 8, 4-methyl 1-(1-(4-(trifluoromethyl)phenyl)cyclobutyl) 2-methylenesuccinate], for which the CIint in data set [1] and in data set [3] was greater than 460 μL min^−1 10^−6 cells throughout. In addition, the half-life at 10 μM in data set [1] and in data set [3] was less than 3 min in each case. The concentration for half-maximal inhibition (IC50) in data set [2] came to 10.8 µM; in data set [4] (setting [6]), 7.6 µM. In addition, the maximum response (Emax) in data set [5] (+GSH) turned out to be 38%; in data set [5] (−GSH), 51%. Besides, the half-maximal effective concentration (EC50) in data set [5] (+GSH) is greater than 100 µM; in data set [5] (−GSH), 51 µM.
For the molecule `C=C(CC(N)=O)C(=O)OC1(c2ccc(C(F)(F)F)cc2)CCC1` [Example 11, 1-(4-(trifluoromethyl)phenyl)cyclobutyl 4-amino-2-methylene-4-oxobutanoate], the results for the CIint in data set [1] and in data set [3] were 9 μL min^−1 10^−6 cells and 162 μL min^−1 10^−6 cells, respectively. In addition, the half-life at 10 μM in data set [1] is 139 min; in data set [3], 9 min. In addition, the half-inhibitory concentration (IC50) stood at 13.2 µM in data set [2] and 9.9 µM in data set [4] (setting [6]). Moreover, the maximum response (Emax) in data set [5] (+GSH) amounted to 100%; in data set [5] (−GSH), 117%. Moreover, the EC50 is 45.7 µM in data set [5] (+GSH) and 33.1 µM in data set [5] (−GSH).
As to `C=C(CC(=O)NCCN1CCOCC1)C(=O)OC1(c2ccc(C(F)(F)F)cc2)CCC1` [Example 13, 1-(4-(trifluoromethyl)phenyl)cyclobutyl 2-methylene-4-((2-morpholinoethyl)amino)-4-oxobutanoate], the CIint in data set [1] is 126 μL min^−1 10^−6 cells; in data set [3], 516 μL min^−1 10^−6 cells. The half-life at 10 μM in data set [1] was 12 min; in data set [3], 4 min. Also, the IC50 in data set [2] is 8.1 µM; in data set [4] (setting [6]), 6.5 µM; in data set [4] (differentiated THP-1 cells) it was 8.5 µM. The Emax in data set [5] (+GSH) is 84%; in data set [5] (−GSH) it was 174%. The EC50 in data set [5] (+GSH) was 48 µM; in data set [5] (−GSH) it was 38.8 µM.
For the molecule `C=C(CC(=O)NC1CCN(C)CC1)C(=O)OC1(c2ccc(C(F)(F)F)cc2)CCC1` [Example 14, 1-(4-(trifluoromethyl)phenyl)cyclobutyl 2-methylene-4-((1-methylpiperidin-4-yl)amino)-4-oxobutanoate], the CIint in data set [1] came out at 40 μL min^−1 10^−6 cells; in data set [3], 108 μL min^−1 10^−6 cells. In addition, the figures for the half-life at 10 μM in data set [1] and in data set [3] were 38 min and 12 min, respectively. Moreover, the results for the IC50 in data set [2] and in data set [4] (setting [6]) were 3.9 µM and 5.2 µM, respectively. For the same molecule, the maximal effect (Emax) in data set [5] (+GSH) turned out to be 95%; in data set [5] (−GSH), 80%. The figures for the EC50 in data set [5] (+GSH) and in data set [5] (−GSH) were 49.4 µM and 14.6 µM, respectively.
With `C=C(CC(=O)NCc1ncc[nH]1)C(=O)OC1(c2ccc(C(F)(F)F)cc2)CCC1` [Example 15, 1-(4-(trifluoromethyl)phenyl)cyclobutyl 4-(((1H-imidazol-2-yl)methyl)amino)-2-methylene-4-oxobutanoate], the CIint worked out at 92 μL min^−1 10^−6 cells in data set [1] and 508 μL min^−1 10^−6 cells in data set [3]. Further, the half-life at 10 μM came to 14 min in data set [1] and 3 min in data set [3]. Also, the IC50 in data set [2] worked out at 7.3 µM; in data set [4] (setting [6]), 5.3 µM. Besides, the maximal effect (Emax) amounted to 86% in data set [5] (+GSH) and 131% in data set [5] (−GSH). The EC50 in data set [5] (+GSH) was 51.3 µM; in data set [5] (−GSH) it was 26.3 µM.
For `C=C(CC(=O)NC1CS(=O)(=O)C1)C(=O)OC1(c2ccc(C(F)(F)F)cc2)CCC1` [Example 18, 1-(4-(trifluoromethyl)phenyl)cyclobutyl 4-((1,1-dioxidothietan-3-yl)amino)-2-methylene-4-oxobutanoate], the CIint in data set [1] was found to be 31 μL min^−1 10^−6 cells; in data set [3], 92 μL min^−1 10^−6 cells. Besides, the half-life at 10 μM in data set [1] amounted to 52 min; in data set [3], 14 min. The IC50 came out at 3.8 µM in data set [2] and 5.2 µM in data set [4] (setting [6]). Besides, the Emax in data set [5] (+GSH) came out at 70%; in data set [5] (−GSH) it was 90%. Besides, the EC50 turned out to be 39.4 µM in data set [5] (+GSH) and 14.7 µM in data set [5] (−GSH).
With `C=C(CC(=O)NCCO)C(=O)OC1(c2ccc(C(F)(F)F)cc2)CCC1` [Example 19, 1-(4-(trifluoromethyl)phenyl)cyclobutyl 4-((2-hydroxyethyl)amino)-2-methylene-4-oxobutanoate], the CIint in data set [1] is given as 32 μL min^−1 10^−6 cells; in data set [3] it was 161 μL min^−1 10^−6 cells. Besides, the half-life at 10 μM in data set [1] stood at 48 min; in data set [3] it was 13 min. Further, the IC50 in data set [2] was found to be 3.8 µM; in data set [4] (setting [6]), 2.5 µM. Further, the Emax was determined as 102% in data set [5] (+GSH) and 210% in data set [5] (−GSH). Besides, the concentration for a half-maximal effect (EC50) came to 50.7 µM in data set [5] (+GSH) and 40.2 µM in data set [5] (−GSH).
With `C=C(CC(=O)NC1CCOCC1)C(=O)OC1(c2ccc(C(F)(F)F)cc2)CCC1` [Example 20, 1-(4-(trifluoromethyl)phenyl)cyclobutyl 2-methylene-4-oxo-4-((tetrahydro-2H-pyran-4-yl)amino)butanoate], the CIint in data set [1] is 85 μL min^−1 10^−6 cells; in data set [3], 668 μL min^−1 10^−6 cells. The half-life at 10 μM turned out to be 18 min in data set [1] and 3 min in data set [3]. Besides, the figures for the IC50 in data set [2] and in data set [4] (setting [6]) were 2.6 µM and 2.9 µM, respectively. For the same molecule, the Emax came out at 63% in data set [5] (+GSH) and 101% in data set [5] (−GSH). Also, the EC50 was 31.4 µM in data set [5] (+GSH) and 14.4 µM in data set [5] (−GSH).
In the case of `C=C(CC(=O)NCC(N)=O)C(=O)OC1(c2ccc(C(F)(F)F)cc2)CCC1` [Example 21, 1-(4-(trifluoromethyl)phenyl)cyclobutyl 4-((2-amino-2-oxoethyl)amino)-2-methylene-4-oxobutanoate], the CIint in data set [1] is recorded as 37 μL min^−1 10^−6 cells; in data set [3] it was 100 μL min^−1 10^−6 cells. The half-life at 10 μM amounted to 42 min in data set [1] and 21 min in data set [3]. For the same molecule, the results for the concentration for half-maximal inhibition (IC50) in data set [2] and in data set [4] (setting [6]) were 3.9 µM and 7.2 µM, respectively. For the same molecule, the Emax came to 86% in data set [5] (+GSH) and 184% in data set [5] (−GSH). For the same molecule, the EC50 in data set [5] (+GSH) was 55 µM; in data set [5] (−GSH), 38 µM.

Broadly, the IC50 is the point on the concentration scale where inhibition reaches its midpoint. High values mean lower potency, low ones higher potency. What is called Emax is the size of the effect at its maximum, as opposed to the concentration needed. What is called EC50 is the concentration at which the effect is half-maximal. Low values mean greater potency, high ones weaker potency.
